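Method: 48-hour compound exposure of cells in 96-well plates, five concentrations, linear interpolation of endpoints. Definition used: TGI = concentration required for complete inhibition of growth.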
How the values were obtained:
Experiment in all cases: NCI anticancer screen, dose series, 48 h
HL-60(TB) leukemia = tested on: HL-60(TB) leukemia
IGROV1 ovarian = tested on: IGROV1 ovarian
KM12 colon = tested on: KM12 colon
SNB-75 CNS = tested on: SNB-75 CNS
SK-MEL-28 melanoma = tested on: SK-MEL-28 melanoma
NCI-H460 lung = tested on: NCI-H460 lung
COLO 205 colon = tested on: COLO 205 colon
SK-MEL-2 melanoma = tested on: SK-MEL-2 melanoma
RXF 393 renal = tested on: RXF 393 renal
MDA-MB-435 = tested on: MDA-MB-435
MOLT-4 leukemia = tested on: MOLT-4 leukemia
HCC-2998 colon = tested on: HCC-2998 colon
NCI-H226 lung = tested on: NCI-H226 lung
HT29 colon = tested on: HT29 colon
SK-MEL-5 melanoma = tested on: SK-MEL-5 melanoma
HCT-116 colon = tested on: HCT-116 colon
MCF7 breast = tested on: MCF7 breast
A498 renal = tested on: A498 renal
SR leukemia = tested on: SR leukemia
NCI-H522 lung = tested on: NCI-H522 lung
OVCAR-5 ovarian = tested on: OVCAR-5 ovarian
OVCAR-3 ovarian = tested on: OVCAR-3 ovarian
SN12C renal = tested on: SN12C renal
OVCAR-8 ovarian = tested on: OVCAR-8 ovarian
U251 CNS = tested on: U251 CNS
MDA-MB-231 breast = tested on: MDA-MB-231 breast
T-47D breast = tested on: T-47D breast
UACC-62 melanoma = tested on: UACC-62 melanoma
HOP-62 NSCLC = tested on: HOP-62 NSCLC
CAKI-1 renal = tested on: CAKI-1 renal
RPMI-8226 leukemia = tested on: RPMI-8226 leukemia
UO-31 renal = tested on: UO-31 renal
PC-3 prostate = tested on: PC-3 prostate
BT-549 breast = tested on: BT-549 breast
NCI-H23 lung = tested on: NCI-H23 lung
MDA-N = tested on: MDA-N
SNB-19 CNS = tested on: SNB-19 CNS
CCRF-CEM leukemia = tested on: CCRF-CEM leukemia
K-562 leukemia = tested on: K-562 leukemia
SF-295 CNS = tested on: SF-295 CNS
DU-145 prostate = tested on: DU-145 prostate
HCT-15 colon = tested on: HCT-15 colon
NCI/ADR-RES ovarian = tested on: NCI/ADR-RES ovarian
M14 melanoma = tested on: M14 melanoma
MALME-3M melanoma = tested on: MALME-3M melanoma
SK-OV-3 ovarian = tested on: SK-OV-3 ovarian
HS 578T breast = tested on: HS 578T breast
LOX IMVI melanoma = tested on: LOX IMVI melanoma
ACHN renal = tested on: ACHN renal
SF-268 CNS = tested on: SF-268 CNS
786-0 renal = tested on: 786-0 renal
OVCAR-4 ovarian = tested on: OVCAR-4 ovarian
SW-620 colon = tested on: SW-620 colon
SF-539 CNS = tested on: SF-539 CNS
TK-10 renal = tested on: TK-10 renal
EKVX NSCLC = tested on: EKVX NSCLC
A549 NSCLC = tested on: A549 NSCLC

Measured: TGI

c1ccc(N=C2SC(=NC3CCCCC3)N(C3CCCCC3)C2=Nc2ccccc2)cc1
> 100 µM: HL-60(TB) leukemia | IGROV1 ovarian | KM12 colon | SNB-75 CNS | SK-MEL-28 melanoma | NCI-H460 lung | COLO 205 colon | SK-MEL-2 melanoma | RXF 393 renal | MDA-MB-435 | MOLT-4 leukemia | HCC-2998 colon | NCI-H226 lung | HT29 colon | SK-MEL-5 melanoma | HCT-116 colon | MCF7 breast | A498 renal | SR leukemia | NCI-H522 lung | OVCAR-5 ovarian | OVCAR-3 ovarian | SN12C renal | OVCAR-8 ovarian | U251 CNS | MDA-MB-231 breast | T-47D breast | UACC-62 melanoma | HOP-62 NSCLC | CAKI-1 renal | RPMI-8226 leukemia | UO-31 renal | PC-3 prostate | BT-549 breast | NCI-H23 lung | MDA-N | SNB-19 CNS | CCRF-CEM leukemia | K-562 leukemia | SF-295 CNS | DU-145 prostate | HCT-15 colon | NCI/ADR-RES ovarian | M14 melanoma | MALME-3M melanoma | SK-OV-3 ovarian | HS 578T breast

CNc1ccc(OC)cc1S(=O)(=O)c1ccccc1[N+](=O)[O-]
> 100 µM: HL-60(TB) leukemia | IGROV1 ovarian | LOX IMVI melanoma | SNB-75 CNS | ACHN renal | SF-268 CNS | SK-MEL-28 melanoma | NCI-H460 lung | COLO 205 colon | SK-MEL-2 melanoma | RXF 393 renal | 786-0 renal | MDA-MB-435 | MOLT-4 leukemia | HCC-2998 colon | NCI-H226 lung | HT29 colon | SK-MEL-5 melanoma | HCT-116 colon | MCF7 breast | A498 renal | SR leukemia | NCI-H522 lung | OVCAR-5 ovarian | OVCAR-3 ovarian | SN12C renal | OVCAR-8 ovarian | U251 CNS | OVCAR-4 ovarian | MDA-MB-231 breast | T-47D breast | SW-620 colon | UACC-62 melanoma | HOP-62 NSCLC | RPMI-8226 leukemia | SF-539 CNS | UO-31 renal | PC-3 prostate | TK-10 renal | BT-549 breast | EKVX NSCLC | NCI-H23 lung | MDA-N | SNB-19 CNS | CCRF-CEM leukemia | A549 NSCLC | K-562 leukemia | SF-295 CNS | DU-145 prostate | HCT-15 colon | NCI/ADR-RES ovarian | M14 melanoma | MALME-3M melanoma | SK-OV-3 ovarian | HS 578T breast
